Patent publication US9745346B2, “Antimicrobial peptides and their application” (INFINITEC ACTIVOS S.L., priority 2014, dated 2017)
Values after ≈ are worked out from the molar mass of the structure shown. *1 amine or outer side, *2 acyl side, *3 side chain or, on linkers, in order; H or OH if unused. Where a SMILES comes first, the peptide text is derived from it. The star is where a group is joined. NH(CH2)3(OCH2CH2)2O(CH2)3NH = C(CN[*:1])COCCOCCOCCCN[*:2]; Palmitoyl = CCCCCCCCCCCCCCCC(=O)*

Assays:
LPS from E. Coli 055:B5 = test: LPS-neutralizing activity, chromogenic Limulus Amebocyte Lysate (LAL) test; assay type: biochemical; conditions: LPS 100 pg/mL, 45 min at 37° C., read-out: LPS-neutralization activity IC50 ± SD
Protocol: All solutions used in the LPS-neutralizing activity assay were tested to ensure they were endotoxin-free and material was sterilized by heating 3 h at 180° C. LPS from E. Coli 055:B5 and Polymyxin B were purchased from Sigma. LPS-neutralizing activity was measured using the chromogenic Limulus Amebocyte Lysate (LAL) test 40 following the manufacturer's instructions (Cambrex). LAL reagent contains a clottable protein that is activated in the presence of non-neutralized LPS and is an extremely sensitive indicator of the presence of endotoxin. When activated, this enzyme catalyses the release of p-nitroaniline (pNA) from the colorless chromogenic substrate Ac-Ile-Glu-Ala-Arg-pNA. The pNA released was measured photometrically at 405 nm in a Rosys Anthos 2010 microtiter plate reader (Tecnomara AG, Zurich, Switzerland). Peptides were incubated at a range of concentrations (200 to 0.001 μM) with LPS (100 pg/mL) in a 96-well microtiter for 45 min at 37° C. Polymyxin B (10 μg/mL) was used as positive control. LAL (12.5 μL) was added to start the reaction at 37° C. After 16 min, non-neutralized LPS was detected after a 10 min incubation with the chromogenic substrate (25 μ) Acetic acid (25% v/v final concentration) was added to stop the reaction and the absorbance was monitored at 405 nm in a Multiskan Ascent microtiter plate reader (ThermoLabsystems). IC50 (the concentration necessary to in vitro neutralize 50% of LPS) values were determined by a serial dilution assay using 100 pg/mL of LPS and a range of peptide concentrations as mentioned above.

Bacillus oleronius = conditions: 21 h
Protocol: (§1) Minimum inhibitory concentration (MIC) is the lowest concentration of an antimicrobial that will inhibit the growth occurred between time zero and […].
(§2) The MIC of peptides of examples 1, 2 and 3 was determined using gram negative bacteria (Escherichia Coli, Vibrio angillarum, Vibrio ordalii, Enterobacter aerogenes, Aeromonas hydrophila, Vibrio parahemolyticus, Bacillus Oleronius and Salmonella tiphy) and gram positive bacteria (Bacillus megaterium, Micrococcus luteus, Staphylococcus aureus and Staphylococcus epidermidis).
(§3) To initiate the exponential phase of bacterial growth prior to the assay, a sample of each bacteria type was allowed to grow overnight at 37° C. in Mueller-Hinton broth and incubated at 37° C. MRSA (Methicillin Resistant Staphylococcus aureus) was grown at 35° C. in cation-adjusted MH broth.
(§4) A final concentration of 1×10^5 CFU/ml was used in all assays. The assays were carried out in 96-well flat-bottom plates. Bacterial suspension in 2× concentrated broth was added to the different peptides at concentrations that varied from 2.500 to 1 μ/mL in H2O in serial twofold dilutions (Time t0). The plates were then incubated for 21 h (Time tf) at 37° C. […] The concentration necessary to inhibit 50% bacterial growth (IC50) could be by using sigmoidal curve-fitting software.

E. Coli = conditions: 21 h
Protocol: as §1, §2, §3, §4

Micrococcus luteus = conditions: 21 h
Protocol: as §1, §2, §3, §4

Enterobacter hydrophila = conditions: 21 h
Protocol: as §1, §2, §3, §4

Salmonella tiphy = conditions: 1×10^5 CFU/ml, 21 h at 37° C., optical density at 620 nm
Protocol: as §1, §2, §3, §4

Vibrio angillarum = conditions: 21 h
Protocol: as §1, §2, §3, §4

Vibro ordalii = conditions: 21 h
Protocol: as §1, §2, §3, §4

Bacillus megaterium = conditions: 21 h
Protocol: as §1, §2, §3, §4

[1] = system: Staphylococcus epidermidis; conditions: 21 h
Protocol: as §1, §2, §3, §4

Staphylococcus aureus = conditions: 21 h
Protocol: as §1, §2, §3, §4

Neurospora crassa = assay type: cell-based
Protocol: (§5) For this essay, diluted spores kept at −80° C. were used (fresh ones in the case of de Saprolegnia sp.), 1×10^4 spores/ml at the specific media for every fungi. 10 μg/ml of tetracycline were added to avoid bacterial action. […] of peptide solution plus […] of spore solution alongside the adequated media are added to a 96 wells microplaque. As a positive control a culture of the spores at the same concentration than the assay but without peptide. The MICs were defined as the lowest concentrations of peptides at which total inhibition of growth is observed and no change in optical density at 595 nm occurred between the measures obtained at t0 and tf.

Fusarium oxysporum = assay type: cell-based
Protocol: as §5

Saprolegnia sp = assay type: cell-based
Protocol: as §5

in vitro = assay type: cell-based; conditions: human
Protocol: As a safety test for the peptides of the present invention the hemolytic activity was determined by using human erythrocytes (RBCs).
The assays were carried out in 96-well flat-bottom plates against a 0.25% RBC suspension as described elsewhere (Blondelle, S. E., L. R. Simpkins, E. Pérez-Payá, and R. A. Houghten. 1993. Influence of tryptophan residues on melitin's hemolytic activity. Biochim. Biophys. Acta 1202:331-336.).
In brief, peptide mixtures were added to the RBC solution at concentrations that varied from 500 to 4 μg/mL in serial twofold dilutions. Following incubation at 37° C. for 1 hour, the plates were centrifuged at 2.800 rpm for 5 min. The supernatant was separated from the pellet, an its optical density at 414 nm was measured. The hemolytic dose to lyse 50% of RBCs (IC50) was calculated by using the sigmoidal curve-fitting software Graphpad.

| Molecule | IC50 (LPS from E. Coli 055:B5) [µM] | Gram negative bacteria MIC, Bacillus oleronius (Bacillus oleronius) [µg/mL] | Gram negative bacteria MIC, E. Coli (E. Coli) [µg/mL] | Gram positive bacteria MIC, Micrococcus luteus (Micrococcus luteus) [µg/mL] | Gram negative bacteria MIC, Enterobacter hydrophila (Enterobacter hydrophila) [µg/mL] | Gram negative bacteria MIC, Salmonella tiphy (Salmonella tiphy) [µg/mL] | Gram negative bacteria MIC, Vibrio angillarum (Vibrio angillarum) [µg/mL] | Gram negative bacteria MIC, Vibro ordalii (Vibro ordalii) [µg/mL] | Gram positive bacteria MIC, Bacillus megaterium (Bacillus megaterium) [µg/mL] | Gram positive bacteria MIC, Staphylococcus epidermidis [1] [µg/mL] | Gram positive bacteria MIC, Staphylococcus aureus (Staphylococcus aureus) [µg/mL] | MIC, Neurospora crassa (Neurospora crassa) [µg/mL] | MIC, Fusarium oxysporum (Fusarium oxysporum) [µg/mL] | MIC, Saprolegnia sp (Saprolegnia sp) [µg/mL] | HC50 at 1 hour (in vitro) [µg/mL] |
| --- | --- | --- | --- | --- | --- | --- | --- | --- | --- | --- | --- | --- | --- | --- | --- |
| KISGKW [compound 3, Ac-KISGKW-NH2] | 96 ± 1.1 |  |  |  |  |  |  |  |  |  |  |  |  |  |  |
| IKISGKWKAQKRFLKM [compound 1, Ac-IKISGKWKAQKRFLKM-NH2] | 34 ± 1.3 |  |  |  |  |  |  |  |  |  |  |  |  |  |  |
| CC(=O)N[C@@H](CCCCN)C(=O)N[C@@H](C)C(=O)N[C@@H](CCC(N)=O)C(=O)N[C@@H](CCCCN)C(=O)N[C@@H](CCCNC(=N)N)C(=O)N[C@@H](Cc1ccccc1)C(N)=O [Example 1, Ac-KAQKRF-NH2] (Ac-KAQKRF-NH2) |  | 11.9 | 10.8 | 6.0 | 14.2 | 11.7 | 31.2 | 10.2 | 13.7 | 11.4 | 11.7 | 0.9 (≈ 1.1 µM) | 0.9 (≈ 1.1 µM) | 0.2 (≈ 0.245 µM) | > 500 |
| KWKAQK [compound 5, Ac-KWKAQK-NH2] | 47 ± 1.1 |  |  |  |  |  |  |  |  |  |  |  |  |  |  |
| AQKRFL [compound 6, Ac-AQKRFL-NH2] | 46 ± 1.1 |  |  |  |  |  |  |  |  |  |  |  |  |  |  |
| IKISGK [compound 2, Ac-IKISGK-NH2] | 105 ± 1.2 |  |  |  |  |  |  |  |  |  |  |  |  |  |  |
| CCCCCCCCCCCCCCCC(=O)N[C@@H](CCCCN)C(=O)N[C@@H](C)C(=O)N[C@@H](CCC(N)=O)C(=O)N[C@@H](CCCCN)C(=O)N[C@@H](CCCNC(=N)N)C(=O)N[C@@H](Cc1ccccc1)C(=O)NCCCOCCOCCOCCCN [Example 3, Palm-KAQKRF-NH—(CH2)3—(OCH2CH2)3—CH2—NH2] (Palmitoyl-KAQKRF-{NH(CH2)3(OCH2CH2)2O(CH2)3NH}) |  | 8.0 | 5.5 | 5.5 | 11.6 | 5.8 | 30.0 | 8.2 | 12.1 | 5.8 | 5.5 | 0.3 (≈ 0.246 µM) | 0.4 (≈ 0.329 µM) | 0.1 (≈ 0.0821 µM) | > 500 |
| SGKWKA [compound 4, Ac-SGKWKA-NH2] | 85 ± 1.4 |  |  |  |  |  |  |  |  |  |  |  |  |  |  |
| CCCCCCCCCCCCCCCC(=O)N[C@@H](CCCCN)C(=O)N[C@@H](C)C(=O)N[C@@H](CCC(N)=O)C(=O)N[C@@H](CCCCN)C(=O)N[C@@H](CCCNC(=N)N)C(=O)N[C@@H](Cc1ccccc1)C(N)=O [Example 2, Palm-KAQKRF-NH2] (Palmitoyl-KAQKRF-NH2) |  | 9.7 | 5.6 | 5.6 | 11.3 | 6.1 | 31.0 | 7.4 | 12.3 | 5.6 | 5.7 | 0.2 (≈ 0.197 µM) | 0.5 (≈ 0.493 µM) | 0.1 (≈ 0.0986 µM) | > 500 |
